Measurements: US20240325398A1, “COMBINATION THERAPIES” (Infinity Pharmaceuticals, Inc., priority 2014, published 2024)

Columns and labels:
[1] = system: ibrutinib-resistant SU-DHL-4 clones; experiment: CTG (Cell Titer Glo) IC50, ibrutinib-resistant clones; type: cell-based; details: ibrutinib clones 2B.3, 5C.3, 10B.3, 11D.3, 11G.3
Protocol: The DMSO stock for each compound was diluted to 5 mM or 1 mM with DMSO. A 1:1000 dilution was performed into the plated cells (10 uL) for a final of 1 uM or 5 uM (final DMSO […]). Cells were counted 2 times per week and cell densities were adjusted back to 2.5×10^5 c/mL as needed. Media/Compound was replenished as needed and Media/Compound was replaced 1× per week. Compound treatment lasted for 28 days. Compound was washed out for 1 week and cells were subsequently used in assays to determine resistance after 4 weeks of treatment.
The cell line pool was treated with compound for an additional 28 days prior to subcloning. Altogether, the cell line pool was under selective pressure for a total of 8 weeks.
Cell lines were subcloned at 3, 1, and 0.3 cells per well (cpw). 1:10 of conditioned medium (CM) was included in medium in addition to corresponding DMSO control or compound. During subcloning optimization experiments, the SU-DHL-4 cell line could only be subcloned in the presence of 1:10 conditioned medium. Conditioned medium (CM) was collected 4 days after splitting the parent cell line and when cells were approximately 90% confluent. Cells were spun down and the supernatant (CM) was collected down. […]
All cell lines subcloned grew out. […] Once expanded in a 24 well plate, the 12 clones per cell line were evaluated for viability by flow using the Dead_Live kit (Invitrogen #L23101).

CLL = experiment: Clinical trial, Compound 1 monotherapy in a patient with CLL; type: in vivo, human; details: one CLL patient
NCI-H929 = experiment: Combination study, ATPLite 72 h, dose matrix (Synergy Score, CI50); details: combination with Compound 1
HH = experiment: as above; type: cell-based; details: combination with Compound 1
Protocol: The method is described as follows.
Additive effect is CI=1.0. […] Antagonistic effect is CI>1.0.
The Synergy Score is calculated as: […]

OCI-Ly3 = experiment: as above
OMP-2 = experiment: as above; details: combination with Compound 1; OPM-2
[2] = as above; details: combination with Compound 1; OPM-2
TMD8 = experiment: as above; details: TMD8
Protocol: Cells are thawed from a liquid nitrogen preserved state. Once cells have been expanded and divide at their expected doubling times, screening begins. Cells are seeded in growth media in either black 1536-well or 384-well tissue culture treated plates. Cells are then equilibrated in assay plates via centrifugation and placed in incubators attached to the Dosing Modules at 37° C. for 24 hours before treatment. […] These Tzero (To) plates are read using ultra-sensitive luminescence on Envision plate readers (Perkin Elmer). Treated assay plates are incubated with compound for 72 hours. After 72 hours, plates are developed for endpoint analysis using ATPLite. All data points are collected via automated processes, quality controlled and analyzed using Zalicus software.
where T is treated cell count and V is untreated (vehicle) cell count (at 72 hours). I ranges from 0% (when T=V) to 100% (when T=0). […] The measure of effect in the experiment can be the inhibition of cellular response relative to the untreated level (vehicle alone). […] The inhibition ranges from 0% at the untreated level to 100% when T=0. Inhibition levels are negative for agents that actually increase levels. Other effect measures, such as an activity ratio r=T/V may be more appropriate for some assays. When activity ratios (e.g, fold increase over stimulated control) are being used, the effect can be measured using an induction 1=ln(T/V). With this definition, all effect expressions are the same as for inhibition.
Growth Inhibition (GI) is used as a measure of cell viability. […] A GI reading of 100% represents complete growth inhibition—T72 compound-treated and T0 vehicle signals are matched. […] A GI reading of 200% represents complete death of all cells in the culture well. Compounds reaching an activity plateau of GI 200% are considered cytotoxic. GI is calculated by applying the following test and equation:
Combination analysis data were collected in a 6×6 dose matrix. Synergy is calculated by comparing a combination's response to those of its single compound, against the drug-with-itself dose-additive reference model. Deviations from dose additivity may be assessed visually on an isobologram or numerically with a Combination Index (CI). […] Additive effect is CI=1.0. […] Antagonistic effect is CI>1.0.
The isobologram was drawn by identifying the locus of concentrations that correspond to crossing the indicated inhibition level. This is done by finding the crossing point for each single agent concentration in a dose matrix across the concentrations of the other single agent. Practically, each vertical concentration CY is held fixed while a bisection algorithm is used to identify the horizontal concentration CX in combination with that vertical dose that gives the chosen effect level in the response surface Z(CX,CY). These concentrations are then connected by linear interpolation to generate the isobologram display. For synergistic interactions, the isobologram contour fall below the additivity threshold and approaches the origin, and an antagonistic interaction would lie above the additivity threshold. The error bars represent the uncertainty arising from the individual data points used to generate the isobologram. The uncertainty for each crossing point is estimated from the response errors using bisection to find the concentrations where Z−αZ(CX,CY) and Z+σZ(CX,CY) cross Icut, where αZ is the standard deviation of the residual error on the effect scale.
To measure combination effects in excess of Loewe additivity, a scalar measure to characterize the strength of synergistic interaction termed the Synergy Score is devised. The Synergy Score is calculated as:
The fractional inhibition for each component agent and combination point in the matrix is calculated relative to the median of all vehicle-treated control wells.

HBL-1 = experiment: as above
Jeko-1 = experiment: as above; details: combination with Compound 1
[3] = combination with CAL-101, OCT-Ly3, Example 2
[4] = combination with Cmpd 1, OCT-Ly3, Example 2
[5] = combination with Compound 1, OCI-Ly3, 72 h
[6] = combination with CAL-101, Example 2
[7] = combination with Cmpd 1, Example 2
[8] = combination with Compound 1, 72 h

With `C[C@H](Nc1ncnc2[nH]cnc12)c1cc2cccc(Cl)c2c(=O)n1-c1ccccc1` [Compound 1, (S)-3-(1-((9H-purin-6-yl)amino)ethyl)-8-chloro-2-phenylisoquinolin-1(2H)-one] the “cross-resistance of ibrutinib-resistant clones” value [1] was “no cross-resistance”, the “Absolute lymphocyte count (ALC)” value (CLL; 25 mg bid, C5D1, ALC=257 at C1D1) was 134 and the clinical response (CLL; 25 mg bid, after C7 (cycle 7), STK11 copy loss detected at C5D1) was “progressed”. For the same compound, the clinical response (CLL; monotherapy 25 mg bid, C3D1 (cycle 3, day 1)) was “partial response”.
With `C[C@@H]1C[C@H]2[C@@H]3CCC4=CC(=O)C=C[C@]4(C)[C@@]3(F)[C@@H](O)C[C@]2(C)[C@@]1(O)C(=O)CO` [dexamethasone, (8S,9R,10S,11S,13S,14S,16R,17R)-9-Fluoro-11,17-dihydroxy-17-(2-hydroxyacetyl)-10,13,16-trimethyl-6,7,8,9,10,11,12,13,14,15,16,17-dodecahydro-3H-cyclopenta[a]phenanthren-3-one] the CI50 growth inhibition (NCI-H929) was “S (S=0.01 to <0.5)”, the CI50 inhibition (NCI-H929) was “U (U=0.7 to <1)” and the “Synergy Score growth inhibition” value (NCI-H929) was “A3 (A3=>3)”. For the same compound, the “Synergy Score inhibition” value (NCI-H929) was “A2 (A2=1 to <3)”, the CI50 growth inhibition (HH) was “S (S=0.01 to <0.5)” and the CI50 inhibition (HH) was “S (S=0.01 to <0.5)”. The “Synergy Score growth inhibition” value (HH) was “A3 (A3=>3)”, the “Synergy Score inhibition” value (HH) was “A3 (A3=>3)” and the “Synergy Score growth inhibition” value (OCI-Ly3; [3]) was “A1 (A1=0.0001 to <1)”. The “Synergy Score inhibition” value (OCI-Ly3; [3]) was “A1 (A1=0.0001 to <1)”, the CI50 growth inhibition (OCI-Ly3; [4]) was “W (W=≥1)” and the “Synergy Score growth inhibition” value (OCI-Ly3; [4]) was “A1 (A1=0.0001 to <1)”. The “Synergy Score inhibition” value (OCI-Ly3; [4]) was “A1 (A1=0.0001 to <1)”, the CI50 growth inhibition (OCI-Ly3; [5]) was “U (U=0.7 to <1)” and the “Synergy Score growth inhibition” value (OCI-Ly3; [5]) was “A1 (A1=0.0001 to <1)”. The “Synergy Score inhibition” value (OCI-Ly3; [5]) was “A1 (A1=0.0001 to <1)”, the CI50 inhibition (OMP-2) was “U (U=0.7 to <1)” and the “Synergy Score growth inhibition” value (OMP-2) was “A2 (A2=1 to <3)”. The “Synergy Score inhibition” value (OMP-2) was “A1 (A1=0.0001 to <1)”, the CI50 growth inhibition [2] was “S (S=0.01 to <0.5)” and the CI50 growth inhibition (TMD8; [6]) was “S (S=0.01 to <0.5)”. For the same compound, the CI50 inhibition (TMD8; [6]) was “S (S=0.01 to <0.5)”, the “Synergy Score growth inhibition” value (TMD8; [6]) was “A3 (A3=>3)” and the “Synergy Score inhibition” value (TMD8; [6]) was “A3 (A3=>3)”. For the same compound, the CI50 growth inhibition (TMD8; [7]) was “T (T=0.5 to <0.7)”, the CI50 inhibition (TMD8; [7]) was “S (S=0.01 to <0.5)” and the “Synergy Score growth inhibition” value (TMD8; [7]) was “A3 (A3=>3)”. The “Synergy Score inhibition” value (TMD8; [7]) was “A3 (A3=>3)”, the CI50 growth inhibition (TMD8; [8]) was “U (U=0.7 to <1)” and the CI50 inhibition (TMD8; [8]) was “S (S=0.01 to <0.5)”. For the same compound, the “Synergy Score growth inhibition” value (TMD8; [8]) was “A3 (A3=>3)”, the “Synergy Score inhibition” value (TMD8; [8]) was “A3 (A3=>3)” and the CI50 growth inhibition (HBL-1; [6]) was “T (T=0.5 to <0.7)”. For the same compound, the CI50 inhibition (HBL-1; [6]) was “S (S=0.01 to <0.5)”, the “Synergy Score growth inhibition” value (HBL-1; [6]) was “A2 (A2=1 to <3)” and the “Synergy Score inhibition” value (HBL-1; [6]) was “A2 (A2=1 to <3)”. For the same compound, the CI50 growth inhibition (HBL-1; [7]) was “T (T=0.5 to <0.7)”, the CI50 inhibition (HBL-1; [7]) was “U (U=0.7 to <1)” and the “Synergy Score growth inhibition” value (HBL-1; [7]) was “A2 (A2=1 to <3)”. The “Synergy Score inhibition” value (HBL-1; [7]) was “A2 (A2=1 to <3)”, the CI50 growth inhibition (HBL-1; [8]) was “S (S=0.01 to <0.5)” and the CI50 inhibition (HBL-1; [8]) was “U (U=0.7 to <1)”. The “Synergy Score growth inhibition” value (HBL-1; [8]) was “A3 (A3=>3)”, the “Synergy Score inhibition” value (HBL-1; [8]) was “A2 (A2=1 to <3)” and the CI50 growth inhibition (Jeko-1) was “U (U=0.7 to <1)”. The CI50 inhibition (Jeko-1) was “S (S=0.01 to <0.5)”, the “Synergy Score growth inhibition” value (Jeko-1) was “A3 (A3=>3)” and the “Synergy Score inhibition” value (Jeko-1) was “A3 (A3=>3)”.
